Values after ≈ are worked out from the molar mass of the structure shown.
How the values were obtained:
[1] = system: Streptococcus pyogenes EES61; assay: In vitro antibacterial activity, agar dilution MIC; format: cell-based; settings: Streptococcus pyogenes, EES61
Description: (§1) Representative compounds of the present invention were assayed in vitro for antibacterial activity as follows: Twelve petri dishes containing successive aqueous dilutions of the test compound mixed with 10 mL of sterilized Brain Heart Infusion (BHI) agar (Difco 0418-01-5) were prepared. Each plate was inoculated with 1:100 (or 1:10 for slow-growing strains, such as Micrococcus and Streptococcus) dilutions of up to 32 different microorganisms, using a Steers replicator block. The inoculated plates were incubated 35°-37° C. for 20 to 24 hours. In addition, a control plate, using BHI agar containing no test compound, was prepared and incubated at the beginning and end of each test.
(§2) An additional plate containing a compound having known susceptibility patterns for the organisms being tested and belonging to the same antibiotic class as the test compound was also prepared and incubated as a further control, as well as to provide test-to-test comparability. Erythromycin A was used for this purpose.
(§3) After incubation, each disk was read. The minimum inhibitory concentration (MIC) was defined as the lowest concentration of drug yielding no growth, a slight haze, or sparsely isolated colonies on the inoculum spot as compared to the growth control.

[2] = system: Pseudomonas aeruginosa K799/WT; assay: In vitro antibacterial activity, agar dilution MIC; format: cell-based; settings: Pseudomonas aeruginosa, K799/WT
Description: as §1, §2, §3

[3] = system: Staphylococcus aureus A5278; assay: In vitro antibacterial activity, agar dilution MIC; format: cell-based; settings: Staphylococcus aureus, A5278
Description: as §1, §2, §3

[4] = system: Staphylococcus epidermidis 3519; assay: In vitro antibacterial activity, agar dilution MIC; format: cell-based; settings: Staphylococcus epidermidis, 3519
Description: as §1, §2, §3

[5] = system: Streptococcus bovis A5169; assay: In vitro antibacterial activity, agar dilution MIC; format: cell-based; settings: Streptococcus equinus, A5169
Description: as §1, §2, §3

[6] = system: Streptococcus pyogenes 2548 induc; assay: In vitro antibacterial activity, agar dilution MIC; format: cell-based; settings: Streptococcus pyogenes, 2548INDUC
Description: as §1, §2, §3

[7] = system: Staphylococcus aureus A5177; assay: In vitro antibacterial activity, agar dilution MIC; format: cell-based; settings: Staphylococcus aureus, A5177
Description: as §1, §2, §3

[8] = system: Pseudomonas aeruginosa A5007; assay: In vitro antibacterial activity, agar dilution MIC; format: cell-based; settings: Pseudomonas aeruginosa, A5007
Description: as §1, §2, §3

[9] = system: Streptococcus agalactiae 508; assay: In vitro antibacterial activity, agar dilution MIC; format: cell-based; settings: Streptococcus agalactiae, 508
Description: as §1, §2, §3

Escherichia coli H560 = assay: In vitro antibacterial activity, agar dilution MIC; format: cell-based; settings: Escherichia coli, H560
Description: as §1, §2, §3

[10] = system: Staphylococcus aureus CMX 642a; assay: In vitro antibacterial activity, agar dilution MIC; format: cell-based; settings: Staphylococcus aureus, CMX642A
Description: as §1, §2, §3

[11] = system: Pseudomonas aeruginosa 5263; assay: In vitro antibacterial activity, agar dilution MIC; format: cell-based; settings: Pseudomonas aeruginosa, 5263
Description: as §1, §2, §3

[12] = system: Pseudomonas aeruginosa 2862; assay: In vitro antibacterial activity, agar dilution MIC; format: cell-based; settings: Pseudomonas aeruginosa, 2862
Description: as §1, §2, §3

Escherichia coli DC-2 = assay: In vitro antibacterial activity, agar dilution MIC; format: cell-based; settings: Escherichia coli, DC2
Description: as §1, §2, §3

[13] = system: Klebsiella pneumoniae ATCC 8045; assay: In vitro antibacterial activity, agar dilution MIC; format: cell-based; settings: Klebsiella pneumoniae, ATCC8045
Description: as §1, §2, §3

Escherichia coli KNK 437 = assay: In vitro antibacterial activity, agar dilution MIC; format: cell-based; settings: Escherichia coli, KNK437
Description: as §1, §2, §3

[14] = system: Enterococcus faecium ATCC 8043; assay: In vitro antibacterial activity, agar dilution MIC; format: cell-based; settings: Enterococcus faecium, ATCC8043
Description: as §1, §2, §3

[15] = system: Staphylococcus aureus NCTC 10649; assay: In vitro antibacterial activity, agar dilution MIC; format: cell-based; settings: Staphylococcus aureus, NCTC10649
Description: as §1, §2, §3

[16] = system: Enterobacter aerogenes ATCC 13048; assay: In vitro antibacterial activity, agar dilution MIC; format: cell-based; settings: Klebsiella aerogenes, ATCC13048
Description: as §1, §2, §3

[17] = system: Staphylococcus aureus CMX 553; assay: In vitro antibacterial activity, agar dilution MIC; format: cell-based; settings: Staphylococcus aureus, CMX553
Description: as §1, §2, §3

[18] = system: Pseudomonas aeruginosa BMH10; assay: In vitro antibacterial activity, agar dilution MIC; format: cell-based; settings: Pseudomonas aeruginosa, BMH10
Description: as §1, §2, §3

[19] = system: Streptococcus pyogenes 930 const; assay: In vitro antibacterial activity, agar dilution MIC; format: cell-based; settings: Streptococcus pyogenes, 930CONST
Description: as §1, §2, §3

Micrococcus luteus 4698 = assay: In vitro antibacterial activity, agar dilution MIC; format: cell-based; settings: Micrococcus luteus, 4698
Description: as §1, §2, §3

[20] = system: Staphylococcus aureus ATCC 6538P; assay: In vitro antibacterial activity, agar dilution MIC; format: cell-based; settings: Staphylococcus aureus, ATCC6538P
Description: as §1, §2, §3

[21] = system: Providencia stuartii CMX 640; assay: In vitro antibacterial activity, agar dilution MIC; format: cell-based; settings: Providencia stuartii, CMX640
Description: as §1, §2, §3

[22] = system: Acinetobacter calcoaceticus CMX 669; assay: In vitro antibacterial activity, agar dilution MIC; format: cell-based; settings: Acinetobacter calcoaceticus, CMX669
Description: as §1, §2, §3

Pseudomonas cepacia 2961 = assay: In vitro antibacterial activity, agar dilution MIC; format: cell-based; settings: Burkholderia cepacia, 2961
Description: as §1, §2, §3

[23] = system: Staphylococcus aureus 1775 Cipro R; assay: In vitro antibacterial activity, agar dilution MIC; format: cell-based; settings: Staphylococcus aureus, 1775CIPROR
Description: as §1, §2, §3

Escherichia coli Juhl = assay: In vitro antibacterial activity, agar dilution MIC; format: cell-based; settings: Escherichia coli
Description: as §1, §2, §3

[24] = system: Micrococcus luteus ATCC 9341; assay: microbe, parasite or virus in culture; settings: Micrococcus luteus, ATCC9341
Description: as §1, §2, §3

Escherichia coli SS = assay: microbe, parasite or virus in culture; settings: Escherichia coli
Description: as §1, §2, §3

[25] = system: Pseudomonas aeruginosa K799/61; assay: In vitro antibacterial activity, agar dilution MIC; format: cell-based; settings: BHI agar, 35°-37° C., 20 to 24 hours, read-out: MIC

CC[C@H]1OC(=O)[C@H](C)[C@@H](O[C@H]2C[C@@](C)(OC)[C@@H](O)[C@H](C)O2)[C@H](C)[C@@H](O[C@@H]2O[C@H](C)C[C@H](N(C)C)[C@H]2O)[C@](C)(O)C[C@@H](C)C(=O)[C@H](C)[C@@H](O)[C@]1(C)O [CONTROL, Erythromycin A, reference compound]
MIC [1]: 0.05 µg/mL (≈ 0.0681 µM)
MIC [2]: > 100 µg/mL
MIC [3]: > 100 µg/mL
MIC [4]: 0.2 µg/mL (≈ 0.273 µM)
MIC [5]: 0.05 µg/mL (≈ 0.0681 µM)
MIC [6]: 6.2 µg/mL (≈ 8.45 µM)
MIC [7]: 1.56 µg/mL (≈ 2.13 µM)
MIC [8]: > 100 µg/mL
MIC [9]: 0.05 µg/mL (≈ 0.0681 µM)
MIC (Escherichia coli H560): 50 µg/mL (≈ 68.1 µM)
MIC [10]: 0.2 µg/mL (≈ 0.273 µM)
MIC [11]: > 100 µg/mL
MIC [12]: > 100 µg/mL
MIC (Escherichia coli DC-2): 100 µg/mL (≈ 136 µM)
MIC [13]: 50 µg/mL (≈ 68.1 µM)
MIC (Escherichia coli KNK 437): 50 µg/mL (≈ 68.1 µM)
MIC [14]: 0.1 µg/mL (≈ 0.136 µM)
MIC [15]: 0.2 µg/mL (≈ 0.273 µM)
MIC [16]: 100 µg/mL (≈ 136 µM)
MIC [17]: 0.2 µg/mL (≈ 0.273 µM)
MIC [18]: 100 µg/mL (≈ 136 µM)
MIC [19]: > 100 µg/mL
MIC (Micrococcus luteus 4698): 0.39 µg/mL (≈ 0.531 µM)
MIC [20]: 0.2 µg/mL (≈ 0.273 µM)
MIC [21]: > 100 µg/mL
MIC [22]: 1.56 µg/mL (≈ 2.13 µM)
MIC (Pseudomonas cepacia 2961): > 100 µg/mL
MIC [23]: > 100 µg/mL
MIC (Escherichia coli Juhl): 50 µg/mL (≈ 68.1 µM)
MIC [24]: 0.05 µg/mL (≈ 0.0681 µM)
MIC (Escherichia coli SS): 0.39 µg/mL (≈ 0.531 µM)
MIC [25]: 3.1 µg/mL (≈ 4.22 µM)

Source: patent US5393743A, “Erythromycin derivatives” (Abbott Laboratories, priority 1993, dated 1995)
